From US7875624B2, “Modulating and measuring cellular adhesion” (Novartis Vaccines and Diagnostics, Inc., priority 2004, dated 2011)
Entries after “also recorded” stand apart in the source; their conditions may differ.

What was measured:
αv integrin = test: Western blot analysis of HUVECs, αv integrin; conditions: 100 nM; lysates at 0, 16 and 24 hours
4T1 breast tumor cells = test: 4T1 spontaneously metastatic mouse breast tumor model: subcutaneous tumor growth, liver and lung metastases; type: in vivo
ICAM = test: Western blot analysis of HUVECs, ICAM; conditions: 100 nM, lysates at 0, 16 and 24 hours
VEGF-A = VEGF-A ELISA in KM12L4a tumor lysates; type: in vivo, mouse; conditions: 100 mg/kg for 7 days; KM12L4a tumors in Nu/nu mice; listed as 4-amino-5-fluoro-3-[6-(4-methylpiperazin-1-yl)-1H-benzimidazol-2-yl]quinolin-2(1)
From the text: […]. Tumor cells (2×10^6 KM12L4a) were implanted subcutaneous into the flank of mice and allowed to grow to the desired size before treatment was initiated. […] The tumors were resected and flash frozen in liquid nitrogen.
VEGF-A protein levels in KM12L4a tumor lysates were quantified using a commercially available ELISA kit (R and D Systems, Minneapolis, Minn.) according to the manufacturer's procedures.

α5 integrin = test: Western blot analysis of HUVECs, α5 integrin; conditions: 100 nM, lysates at 0, 16 and 24 hours
soluble VCAM = test: Soluble VCAM ELISA in serum of 4T1 tumor bearing mice; conditions: 4T1 breast tumors
[1] = system: KM12L4a human colon tumors; test: Antibody immunohistochemistry staining of KM12L4a human colon tumors (Ki67, PARP, caspase-3, CD31); type: in vivo, mouse; conditions: 100 mg/kg for 7 days
MMP-9 = test: Zymography for MMP-9 activity in KM12L4a human colon xenografts; type: in vivo, mouse; conditions: 100 mg/kg for 7 days; KM12L4a tumors in Nu/nu mice; listed as 4-amino-5-fluoro-3-[6-(4-methylpiperazin-1-yl)-1H-benzimidazol-2-yl]quinolin-2(1)
Method: Female Nu/nu mice (6-8 weeks old, 18-22 grams) were obtained from Charles River Laboratories (Wilmington, Mass.). Tumor cells (2×10^6 KM12L4a) were implanted subcutaneous into the flank of mice and allowed to grow to the desired size before treatment was initiated. […] The tumors were resected and flash frozen in liquid nitrogen.
After electrophoresis, gels were washed twice for 15 minutes in 2.5% Triton X-100, incubated overnight at 37° C. in 50 mM Tris-HCl and 10 mM CaCl2, pH 7.6, and stained with 0.5% Comassie Blue and destained with 50% methanol.

VCAM = test: Western blot analysis of HUVECs, VCAM; conditions: 100 nM, lysates at 0, 16 and 24 hours
soluble ICAM = test: Soluble ICAM ELISA in serum of 4T1 tumor bearing mice; conditions: 4T1 breast tumors
[2] = 10 mpk orally, daily for 18 days
[3] = 30 mpk orally, daily for 18 days
[4] = 60 mpk orally, daily for 18 days
[5] = 100 mpk orally, daily for 18 days
[6] = 150 mpk orally, daily for 18 days
[7] = orally, daily, after 18 days of dosing, BALB/C mice
[8] = listed as 4-amino-5-fluoro-3-[6-(4-methylpiperazin-1-yl)-1H-benzimidazol-2-yl]quinolin-2(1)
[9] = 100 or 150 mg/kg orally, daily for 18 days
[10] = varying amounts (10-150 mg/kg), 18 days

CN1CCN(c2ccc3nc(-c4c(N)c5c(F)cccc5[nH]c4=O)[nH]c3c2)CC1 [Compound 1]
expression of αv integrin in HUVECs (αv integrin): not αν integrin
growth of the subcutaneous tumor inhibited compared to control (4T1 breast tumor cells; 10-150 mg/kg orally, daily for 18 days, BALB/C mice): 40-80%
# of Liver Metastases Mean +/− SD (4T1 breast tumor cells; [2]): 22.0 +/− 32.3
Liver Metastases: Incidence of Metastases (4T1 breast tumor cells; [2]): 7/8
# of Liver Metastases Mean +/− SD (4T1 breast tumor cells; [3]): 3.1 +/− 3.5
Liver Metastases: Incidence of Metastases (4T1 breast tumor cells; [3]): 6/10
# of Liver Metastases Mean +/− SD (4T1 breast tumor cells; [4]): 0.7 +/− 0.9
Liver Metastases: Incidence of Metastases (4T1 breast tumor cells; [4]): 5/10
# of Liver Metastases Mean +/− SD (4T1 breast tumor cells; [5]): 4.1 +/− 13.0
Liver Metastases: Incidence of Metastases (4T1 breast tumor cells; [5]): 1/10
# of Liver Metastases Mean +/− SD (4T1 breast tumor cells; [6]): 0.0 +/− 0.0
Liver Metastases: Incidence of Metastases (4T1 breast tumor cells; [6]): 0/9
liver metastases inhibition (4T1 breast tumor cells; [7]): completely inhibited
lung metastases inhibited (4T1 breast tumor cells; [7]): 60-97%
expression of ICAM in HUVECs (ICAM): decreased
expression of ICAM in HUVECs (ICAM; [8]): decrease
VEGF production in tumors (ELISA) (VEGF-A): reduced VEGF production; also recorded: decrease
expression of α5 integrin in HUVECs (α5 integrin): decreased
expression of α5 integrin in HUVECs (α5 integrin; [8]): decrease
inhibition of soluble VCAM in serum (soluble VCAM; [9]): 44-47%
soluble VCAM in serum, effect in words (soluble VCAM; [10]): dose-dependent reduction
apoptosis (PARP cleavage and caspase-3) [1]: induced apoptosis
tumor cell proliferation (Ki67) [1]: decreased tumor cell proliferation
vascular density (CD31) [1]: reduced vascular density
MMP-9 activity in tumors (zymography) (MMP-9): decreased MMP-9 activity; also recorded: decrease
expression of VCAM in HUVECs (VCAM): decreased
expression of VCAM in HUVECs (VCAM; [8]): decrease
inhibition of soluble ICAM in serum (soluble ICAM; [9]): greater than 70%
soluble ICAM in serum, effect in words (soluble ICAM; [10]): dose-dependent reduction
